The values below are quoted from earlier work in patent US9427419B2, “Compositions comprising dimethyl sulfoxide (DMSO)” (Abela Pharmaceuticals, Inc., priority 2005, dated 2016).

One series concerns cerebral blood flow. Particulars: variety of brain injuries including stroke and head trauma, animals and humans.
For series [1] the following is noted: after oral administration.
The conditions of series [2]: higher doses, from 15 to 30 grams daily.
The next series concerns endothelin-1. Conditions: continuous intravenous infusion for 120 minutes at 0.125 g/min, angina pectoris.
Series [3] concerns asymmetric dimethylarginine (ADMA). Particulars: continuous intravenous infusion for 120 minutes at 0.125 g/min, angina pectoris.
Series [4] concerns cerebral blood flow, contused brain. Conditions: mice, after experimental traumatic injury.
The conditions of series [5]: doses of 250 mg/Kg.

Turning to `C[S+](C)[O-]` [DMSO, dimethyl sulfoxide], the “excitotoxic death of the neurons induced by glutamate” value with hippocampal neurons was “can prevent excitotoxic death”. Besides, in the series on hippocampal neurons (DMSO concentrations 0.5-[…]), the “glutamate responses in hippocampal neurons” value is recorded as “inhibit glutamate responses”. The “electrophysiological responses and calcium influx induced by glutamate, NMDA and AMPA” value in the series on hippocampal neurons (rapidly reversible manner) is “suppresses”. Further, the “cerebral blood flow (CBF)” value with cerebral blood flow is on record as “increase CBF”.
As for `N=C(N)NCCC[C@H](N)C(=O)O` [L-arginine], the “time of peak plasma levels” value in series [1] was 1 to 2 h. Further, the “most common adverse reactions” value in series [2] is “nausea, abdominal cramps and diarrhea”. Also, the “levels of endothelin-1” value in the series with endothelin-1 is given as “reduce the levels of endothelin-1”. Also, the “serum levels of asymmetric dimethylarginine (ADMA)” value in series [3] is “lowered the serum levels of asymmetric dimethylarginine (ADMA)”. Also, in series [4], the “cerebral blood flow (CBF) post-injury” value was “increased CBF post-injury” and the contusion volume entry is recorded as “reduction in contusion volume”.
With `N[C@@H](CC(=O)O)C(=O)O` [L-aspartate], in series [5], the adverse effects entry is “without adverse effects”.
For `NCCCC[C@H](N)C(=O)O` [L-lysine], the adverse effects result in series [5] is recorded as “without adverse effects”.
